According to US9895367B2, “Formulation comprising phenylaminopyrimidine derivative as active agent” (NATCO PHARMA LIMITED, priority 2011, dated 2018):

Key:
[1] = Bioavailability study in rats (oral, LCMS of blood); format: in vivo; settings: wistar albino male rats, fasted overnight, average
Description: Four rats (wistar albino, male, weighing 120-180 grams) were divided into two sets of study (two rats in each set) and fasted overnight prior to dosing, but were permitted water ad libitum. The sample preparation and subsequent dilution was made as per protocol with a vehicle, followed by the administration of the sample through oral route. Blood samples were collected by puncturing retero-orbital sinus of the anaesthetized rats (with anesthetic ether) at definite intervals of 15, 30, 60, 120, 240, 360, 480 and 720 minutes post administration. The blood collection was done in prefilled heparin centrifugation tubes.
The blood samples collected were subjected for the subsequent centrifugation and followed by analytical procedure with the use of LCMS technique. The areas under the blood drug concentration versus time curves are calculated by the trapezoidal rule. The analysis was done with respect to AUC (area under curve), Cmax (maximum concentration) and Tmax (time of maximum concentration).

[2] = tested on: CAL-27 (Tongue squamous cell carcinoma) cell line; experiment: MTT assay on CAL-27 cell line; format: cell-based; settings: Homo sapiens, CAL-27, 1.75×10^4 cells/mL, 72 hours
rats = experiment: Toxicological study, maximum tolerated oral dose in rats; format: in vivo
[3] = Solubility of NRC-AN-019 drug substance; format: physicochemical
Description: NRC-AN-019 is a pale yellow to light brown coloured crystalline to amorphous powder. Its molecular formula is C25H17F6N5O and its relative molecular mass is 517.44. […] The drug substance is soluble in dimethyl formamide and dimethyl sulfoxide.

[4] = tested on: PC3M (Prostate Cancer) Cell lines; experiment: MTT assay on PC3M cell lines; format: cell-based; settings: Homo sapiens, PC-3M, 0.312×10^5 cells/mL, 72 hours

Q: Which Cmax ([1]; rat) does the source give for Cc1ccc(NC(=O)c2cc(C(F)(F)F)cc(C(F)(F)F)c2)cc1Nc1nccc(-c2cccnc2)n1 [NRC-AN-019, (3,5-bis-trifluoromethyl)-N-[4-methyl-3-(4-pyridin-3-yl-pyrimidin-2-ylamino)-pheny-1]-benzamide] here?
A: 0.0352 µg/mL

Q: And the Tmax ([1]; rat)?
A: 8.7 h

Q: And the AUC ([1]; trapezoidal rule)?
A: 0.43 µg·h/mL

Q: What about the IC50 [2] of the same compound?
A: 1.44 µM

Q: And the “maximum tolerated oral dose” value (rats)?
A: > 5000 mg/kg bodyweight

Q: What about the “solubility in aqueous buffer of pH 1.2” value ([3]; aqueous buffer pH 1.2) of the same compound?
A: very slightly soluble

Q: And the “solubility in dimethyl formamide” value ([3]; dimethyl formamide)?
A: soluble

Q: And the “solubility in dimethyl sulfoxide” value ([3]; dimethyl sulfoxide)?
A: soluble

Q: What about the “solubility in neutral/alkaline aqueous buffers” value ([3]; neutral/alkaline aqueous buffers) of the same compound?
A: insoluble

Q: What about the solubility in water ([3]; water) of the same compound?
A: practically insoluble

Q: What about the IC50 [4] of the same compound?
A: 4.38 µM
